What was measured:
Assay in all cases: relative viability (nuclei count vs DMSO), 5 days (fraction); higher = more cells survive
[1] = compound: Cc1ccc(Nc2nccc(N(C)c3ccc4c(C)n(C)nc4c3)n2)cc1S(N)(=O)=O [Pazopanib] + Cc1nc(Nc2ncc(C(=O)Nc3c(C)cccc3Cl)s2)cc(N2CCN(CCO)CC2)n1 [Dasatinib] (partner 0.075 µM)
Summary of the method: (§1)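 A single step with final 0.05% Triton X-100, 1% formaldehyde and 1 ug/ml Hoechst fixed the cells and stained nuclei 5 days after treatment. Lung cancer cell lines in 1536-well plates had been treated by pin tool the day after seeding with one drug alone or a fixed anchor-drug dose plus five library-drug doses (not always all listed) in √10 steps, and nuclei were counted on 4× images. Relative viability is the ratio of nuclei in treated wells to nuclei in vehicle wells, taken as the median of duplicate plates.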

[2] = compound: Cc1ccc(C(=O)Nc2ccc(CN3CCN(C)CC3)c(C(F)(F)F)c2)cc1C#Cc1cnc2cccnn12 [Ponatinib] + Nc1ncn([C@H]2C[C@H](O)[C@@H](CO)O2)c(=O)n1 [Decitabine] (partner 2 µM)
Summary of the method: as §1

[3] = compound: Cc1ccc(Nc2nccc(N(C)c3ccc4c(C)n(C)nc4c3)n2)cc1S(N)(=O)=O [Pazopanib] + CCNC(=O)c1noc(-c2cc(C(C)C)c(O)cc2O)c1-c1ccc(CN2CCOCC2)cc1 [Luminespib] (partner 0.01 µM)
Summary of the method: as §1

[4] = compound: Cc1ccc(C(=O)Nc2ccc(CN3CCN(C)CC3)c(C(F)(F)F)c2)cc1C#Cc1cnc2cccnn12 [Ponatinib] + CC(C)C[C@H](NC(=O)[C@H](Cc1ccccc1)NC(=O)c1cnccn1)B(O)O [Bortezomib] (partner 0.002 µM)
Summary of the method: as §1

With NCI-H1975 the relative viability ([1]; first compound 0.01 µM) was 0.371, the relative viability ([1]; first compound 0.03162 µM) was 0.359 and the relative viability ([1]; first compound 0.1 µM) was 0.336. It also gave a relative viability ([1]; first compound 0.3162 µM) of 0.415, a relative viability ([1]; first compound 1 µM) of 0.359 and a relative viability ([2]; first compound 0.002 µM) of 0.386. It also gave a relative viability ([2]; first compound 0.006325 µM) of 0.425, a relative viability ([2]; first compound 0.06325 µM) of 0.413 and a relative viability ([2]; first compound 0.2 µM) of 0.437. For the same cell line, the relative viability ([3]; first compound 0.01 µM) was 0.157, the relative viability ([3]; first compound 0.03162 µM) was 0.326 and the relative viability ([3]; first compound 0.1 µM) was 0.275. It also gave a relative viability ([3]; first compound 0.3162 µM) of 0.272, a relative viability ([3]; first compound 1 µM) of 0.331 and a relative viability ([4]; first compound 0.002 µM) of 0.353. The relative viability ([4]; first compound 0.006325 µM) was 0.296, the relative viability ([4]; first compound 0.06325 µM) was 0.338 and the relative viability ([4]; first compound 0.2 µM) was 0.36.
NCI-H1993 showed a relative viability ([1]; first compound 0.03162 µM) of 0.6, a relative viability ([1]; first compound 0.1 µM) of 0.542 and a relative viability ([1]; first compound 0.3162 µM) of 0.588. The relative viability ([1]; first compound 1 µM) was 0.582, the relative viability ([2]; first compound 0.002 µM) was 0.549 and the relative viability ([2]; first compound 0.006325 µM) was 0.583. For the same cell line, the relative viability ([2]; first compound 0.06325 µM) was 0.671, the relative viability ([2]; first compound 0.2 µM) was 0.61 and the relative viability ([3]; first compound 0.03162 µM) was 0.728. The relative viability ([3]; first compound 0.1 µM) was 0.885, the relative viability ([3]; first compound 0.3162 µM) was 0.885 and the relative viability ([3]; first compound 1 µM) was 0.913. For the same cell line, the relative viability ([4]; first compound 0.002 µM) was 1.11, the relative viability ([4]; first compound 0.006325 µM) was 1.15 and the relative viability ([4]; first compound 0.06325 µM) was 1.4. It also gave a relative viability ([4]; first compound 0.2 µM) of 1.23.
For NCI-H2009, the relative viability ([1]; first compound 0.01 µM) was 0.279, the relative viability ([1]; first compound 0.03162 µM) was 0.324 and the relative viability ([1]; first compound 0.1 µM) was 0.298. It also gave a relative viability ([1]; first compound 0.3162 µM) of 0.335, a relative viability ([1]; first compound 1 µM) of 0.226 and a relative viability ([2]; first compound 0.002 µM) of 0.399. For the same cell line, the relative viability ([2]; first compound 0.006325 µM) was 0.343, the relative viability ([2]; first compound 0.06325 µM) was 0.354 and the relative viability ([2]; first compound 0.2 µM) was 0.372. It also gave a relative viability ([3]; first compound 0.01 µM) of 1.04, a relative viability ([3]; first compound 0.03162 µM) of 0.989 and a relative viability ([3]; first compound 0.1 µM) of 0.988. For the same cell line, the relative viability ([3]; first compound 0.3162 µM) was 0.955, the relative viability ([3]; first compound 1 µM) was 0.854 and the relative viability ([4]; first compound 0.002 µM) was 0.86. It also gave a relative viability ([4]; first compound 0.006325 µM) of 0.969, a relative viability ([4]; first compound 0.06325 µM) of 1.05 and a relative viability ([4]; first compound 0.2 µM) of 1.
With NCI-H2023 the relative viability ([1]; first compound 0.01 µM) was 0.528, the relative viability ([1]; first compound 0.03162 µM) was 0.566 and the relative viability ([1]; first compound 0.1 µM) was 0.473. For the same cell line, the relative viability ([1]; first compound 0.3162 µM) was 0.535, the relative viability ([1]; first compound 1 µM) was 0.577 and the relative viability ([2]; first compound 0.002 µM) was 0.24. For the same cell line, the relative viability ([2]; first compound 0.006325 µM) was 0.196, the relative viability ([2]; first compound 0.06325 µM) was 0.244 and the relative viability ([2]; first compound 0.2 µM) was 0.21. It also gave a relative viability ([3]; first compound 0.01 µM) of 0.781, a relative viability ([3]; first compound 0.03162 µM) of 0.77 and a relative viability ([3]; first compound 0.1 µM) of 0.652. It also gave a relative viability ([3]; first compound 0.3162 µM) of 0.613, a relative viability ([3]; first compound 1 µM) of 0.883 and a relative viability ([4]; first compound 0.002 µM) of 0.957. It also gave a relative viability ([4]; first compound 0.006325 µM) of 0.982, a relative viability ([4]; first compound 0.06325 µM) of 1.17 and a relative viability ([4]; first compound 0.2 µM) of 0.764.
With NCI-H2085 the relative viability ([1]; first compound 0.01 µM) was 0.219, the relative viability ([1]; first compound 0.03162 µM) was 0.255 and the relative viability ([1]; first compound 0.1 µM) was 0.225. The relative viability ([1]; first compound 0.3162 µM) was 0.241, the relative viability ([1]; first compound 1 µM) was 0.265 and the relative viability ([2]; first compound 0.002 µM) was 0.541. The relative viability ([2]; first compound 0.006325 µM) was 0.58, the relative viability ([2]; first compound 0.06325 µM) was 0.613 and the relative viability ([2]; first compound 0.2 µM) was 0.565. The relative viability ([3]; first compound 0.01 µM) was 0.461, the relative viability ([3]; first compound 0.03162 µM) was 0.41 and the relative viability ([3]; first compound 0.1 µM) was 0.5. For the same cell line, the relative viability ([3]; first compound 0.3162 µM) was 0.434, the relative viability ([3]; first compound 1 µM) was 0.425 and the relative viability ([4]; first compound 0.002 µM) was 0.98. It also gave a relative viability ([4]; first compound 0.006325 µM) of 1.15, a relative viability ([4]; first compound 0.06325 µM) of 1.25 and a relative viability ([4]; first compound 0.2 µM) of 1.03.
NCI-H2087 showed a relative viability ([1]; first compound 0.01 µM) of 0.743, a relative viability ([1]; first compound 0.03162 µM) of 0.989 and a relative viability ([1]; first compound 0.1 µM) of 0.929. The relative viability ([1]; first compound 0.3162 µM) was 1.01, the relative viability ([1]; first compound 1 µM) was 0.72 and the relative viability ([2]; first compound 0.002 µM) was 0.186. For the same cell line, the relative viability ([2]; first compound 0.006325 µM) was 0.294, the relative viability ([2]; first compound 0.06325 µM) was 0.338 and the relative viability ([2]; first compound 0.2 µM) was 0.264. For the same cell line, the relative viability ([3]; first compound 0.01 µM) was 0.162, the relative viability ([3]; first compound 0.03162 µM) was 0.174 and the relative viability ([3]; first compound 0.1 µM) was 0.171. It also gave a relative viability ([3]; first compound 0.3162 µM) of 0.165, a relative viability ([3]; first compound 1 µM) of 0.159 and a relative viability ([4]; first compound 0.002 µM) of 0.57. It also gave a relative viability ([4]; first compound 0.006325 µM) of 0.566, a relative viability ([4]; first compound 0.06325 µM) of 0.74 and a relative viability ([4]; first compound 0.2 µM) of 0.688.
Cell Line NCI-H2126 has a relative viability ([1]; first compound 0.01 µM) of 0.528, a relative viability ([1]; first compound 0.03162 µM) of 0.528 and a relative viability ([1]; first compound 0.1 µM) of 0.607. For the same cell line, the relative viability ([1]; first compound 0.3162 µM) was 0.594, the relative viability ([1]; first compound 1 µM) was 0.615 and the relative viability ([2]; first compound 0.002 µM) was 0.587. For the same cell line, the relative viability ([2]; first compound 0.006325 µM) was 0.585, the relative viability ([2]; first compound 0.06325 µM) was 0.667 and the relative viability ([2]; first compound 0.2 µM) was 0.545. It also gave a relative viability ([3]; first compound 0.01 µM) of 0.93, a relative viability ([3]; first compound 0.03162 µM) of 0.928 and a relative viability ([3]; first compound 0.1 µM) of 0.903. For the same cell line, the relative viability ([3]; first compound 0.3162 µM) was 0.846, the relative viability ([3]; first compound 1 µM) was 0.946 and the relative viability ([4]; first compound 0.002 µM) was 1.08. For the same cell line, the relative viability ([4]; first compound 0.006325 µM) was 1.13, the relative viability ([4]; first compound 0.06325 µM) was 1.16 and the relative viability ([4]; first compound 0.2 µM) was 1.13.
Work on NCI-H2347 yielded a relative viability ([1]; first compound 0.01 µM) of 0.27, a relative viability ([1]; first compound 0.03162 µM) of 0.307 and a relative viability ([1]; first compound 0.1 µM) of 0.303. It also gave a relative viability ([1]; first compound 0.3162 µM) of 0.353, a relative viability ([1]; first compound 1 µM) of 0.331 and a relative viability ([2]; first compound 0.002 µM) of 0.663. The relative viability ([2]; first compound 0.006325 µM) was 0.571, the relative viability ([2]; first compound 0.06325 µM) was 0.614 and the relative viability ([2]; first compound 0.2 µM) was 0.605. The relative viability ([3]; first compound 0.01 µM) was 0.299, the relative viability ([3]; first compound 0.03162 µM) was 0.453 and the relative viability ([3]; first compound 0.1 µM) was 0.898. It also gave a relative viability ([3]; first compound 0.3162 µM) of 0.309, a relative viability ([3]; first compound 1 µM) of 0.471 and a relative viability ([4]; first compound 0.006325 µM) of 1.08. For the same cell line, the relative viability ([4]; first compound 0.06325 µM) was 0.962 and the relative viability ([4]; first compound 0.2 µM) was 0.938.
In the case of NCI-H2405, the relative viability ([1]; first compound 0.01 µM) is reported as 0.222, the relative viability ([1]; first compound 0.03162 µM) is reported as 0.227 and the relative viability ([1]; first compound 0.1 µM) is reported as 0.147. It also gave a relative viability ([1]; first compound 0.3162 µM) of 0.256, a relative viability ([1]; first compound 1 µM) of 0.249 and a relative viability ([2]; first compound 0.002 µM) of 0.762. For the same cell line, the relative viability ([2]; first compound 0.006325 µM) was 0.754, the relative viability ([2]; first compound 0.06325 µM) was 0.821 and the relative viability ([2]; first compound 0.2 µM) was 0.685. For the same cell line, the relative viability ([3]; first compound 0.01 µM) was 0.728, the relative viability ([3]; first compound 0.03162 µM) was 0.837 and the relative viability ([3]; first compound 0.1 µM) was 0.821. It also gave a relative viability ([3]; first compound 0.3162 µM) of 0.815, a relative viability ([3]; first compound 1 µM) of 0.73 and a relative viability ([4]; first compound 0.002 µM) of 0.931. For the same cell line, the relative viability ([4]; first compound 0.006325 µM) was 1.05, the relative viability ([4]; first compound 0.06325 µM) was 0.944 and the relative viability ([4]; first compound 0.2 µM) was 0.93.

From the supplement of paper PMC10307832
